Measurements as given in PMC3176258, “A genomic biomarker signature can predict skin sensitizers using a cell-based in vitro alternative to animal tests” (BMC Genomics, 2011).
Values after ≈ are worked out from the molar mass of the structure shown. Where two headings read alike, the source gives them in different places.

Legend:
MUTZ-3 cells [1] = assay: Transcriptional profiling (Affymetrix Human Gene 1.0 ST arrays, PCA) after 24 h stimulation; type: cell-based; settings: for Potency predicted by Prediction Signature gene expression profile: 200 transcripts, PCA, compared with LLNA potency, Figure 4C
MUTZ-3 cells [2] = assay: Cytotoxicity by propidium iodide, relative viability
Method: A panel of 40 chemical compounds, consisting of 20 sensitizers and 20 non-sensitizers were used for cell stimulations. […] All chemicals were from Sigma-Aldrich, St. Louis, MO, USA. Compounds were dissolved in either dimethyl sulfoxide (DMSO) or distilled water. Prior to stimulations, the cytotoxicity of all compounds was monitored, using propidium iodide (PI) (BD Biosciences, San Diego, CA) using protocol provided by the manufacturer. The relative viability of stimulated cells was calculated as [drawing 1]
For toxic compounds, the concentration yielding 90% relative viability (Rv90) was used. For non-toxic compounds, a concentration of 500 μM was used. For non-toxic compounds that were insoluble at 500 μM in medium, the highest soluble concentration was used. For compounds dissolved in DMSO, the final concentration of DMSO in each well was 0.1%.
The human myeloid leukemia-derived cell line MUTZ-3 (DSMZ, Braunschweig, Germany) was maintained in α-MEM (Thermo Scientific Hyclone, Logan, UT) supplemented with 20% (volume/volume) fetal calf serum (Invitrogen, Carlsbad, CA) and 40 ng/ml rhGM-CSF (Bayer HealthCare Pharmaceuticals, Seattle, WA), as described. Cultures were maintained at 200.000 cells/ml during expansion, with a media change every 3-4 days. No differentiating steps were performed. Instead, the proliferating progenitor MUTZ-3 was used for stimulations, as delivered by the supplier. Prior to each experiment, the cells were immunophenotyped using flow cytometry as a quality control. Cells were seeded in 6-well plates at 200.000 cells/ml. Stock solutions of each compound were prepared in either DMSO or distilled water, and were subsequently diluted so the in-well concentrations corresponded to the Rv90 value, and in-well concentrations of DMSO were 0.1%. Cells were incubated for 24 h at 37°C and 5% CO2. Thereafter, cells were harvested and analyzed by flow cytometry. In parallel, harvested cells were lysed in TRIzol reagent (Invitrogen) and stored at -20°C until RNA extraction. Stimulations with chemicals were performed in three individual experiments, so that triplicates samples were obtained.

mice = settings: cited from earlier work
MUTZ-3 cells [3] = assay: CD86 cell surface expression by flow cytometry after 24 h stimulation; type: cell-based, human; settings: for CD86 surface expression: flow cytometry, Student's t test
Method: CD86 is the most extensively studied biomarker for sensitization to date, using e.g. monocyte derived dendritic cells (MoDCs) or human cell lines and their progenitors, such as THP-1, U-937 and KG-1. Thus, as a reference, cell surface expression of CD86 was measured with flow cytometry after 24 h stimulation, using 20 sensitizers and 20 non-sensitizers, as well as vehicle controls (Figure 2). […]. […] Consequently, CD86 cannot classify skin sensitizers, using a system based on MUTZ-3 cells.
No differentiating steps were performed. […] Thereafter, cells were harvested and analyzed by flow cytometry.
All cell surface staining and washing steps were performed in PBS containing 1% BSA (w/v). Cells were incubated with specific mouse mAbs for 15 min at 4°C. The following mAbs were used for flow cytometry: FITC-conjugated CD1a (DakoCytomation, Glostrup, Denmark), CD34, CD86, and HLA-DR (BD Biosciences), PE-conjugated CD14 (DakoCytomation), CD54 and CD80 (BD Biosciences). Mouse IgG1, conjugated to FITC or PE were used as isotype controls (BD Biosciences) and PI was used to assess cell viability. FACSDiva software was used for data acquisition with FACSCanto II instrument (BD Bioscience). 10,000 events were acquired and gates were set based on light scatter properties to exclude debris and nonviable cells. Further data analysis was performed using FCS Express V3 (De Novo Software, Los Angeles, CA).

physchem = settings: aqueous buffer, kinetic from dmso stock
Max solubility in medium = settings: aqueous buffer, kinetic from dmso stock
[4] = 1010 transcripts, one-way ANOVA, one or more replicate, Figure 3B
[5] = concentration yielding 90% relative viability, propidium iodide
[6] = sensitizing potency category according to LLNA, ref (14, 15, 45-48)
[7] = 1137 genes, multi-group ANOVA, Figure 3D

Compound: Tween 80
- PCA grouping, sensitizing vs. non-sensitizing chemicals (MUTZ-3 cells [1]; [4]): grouped closely with the sensitizers

Compound: O=CC=O [Glyoxal]
- Rv90 (MUTZ-3 cells [2]): 300 µM
- Potency predicted by Prediction Signature gene expression profile (MUTZ-3 cells [1]): grouped together with weak sensitizers
- PCA grouping, sensitizing vs. non-sensitizing chemicals (MUTZ-3 cells [1]; [4]): grouped together with the control group
- Potency (mice; mouse, in vivo): Moderate [46]

Compound: O=C/C=C/c1ccccc1 [Cinnamaldehyde]
- CD86 surface expression (MUTZ-3 cells [3]): significantly up-regulated
- Rv90 (MUTZ-3 cells [2]; [5]): 120 µM
- Potency (mice; [6]): Moderate [47]

Compound: O=C(O)c1ccc(O)cc1 [p-Hydroxybenzoic acid]
- solubility (physchem): 250 µM (≈ 34.5 µg/mL)

Compound: C=CCc1ccc(O)c(OC)c1 [Eugenol]
- Rv90 (MUTZ-3 cells [2]; human, 24 h): 300 µM
- PCA grouping, sensitizing vs. non-sensitizing chemicals (MUTZ-3 cells [1]; [4]): grouped together with the control group
- Potency (mice; mouse, in vivo): Weak [47]

Compound: [K+].[K+].[O]=[Cr](=[O])([O-])[O][Cr](=[O])(=[O])[O-] [Potassium dichromate]
- CD86 surface expression (MUTZ-3 cells [3]): significantly up-regulated
- PCA grouping, each individual stimulation (MUTZ-3 cells [1]): discrete profile
- Potency (mice; mouse, in vivo): Extreme [14]

Compound: Sc1nc2ccccc2s1 [2-Mercaptobenzothiazole]
- CD86 surface expression (MUTZ-3 cells [3]): significantly up-regulated
- solubility (physchem): 250 µM (≈ 41.8 µg/mL)
- PCA grouping, each individual stimulation (MUTZ-3 cells [1]; [7]): group together, separate from the negative group
- Potency (mice; [6]): Moderate [46]

Compound: CCCCCCCC(=O)O [Octanoic acid]
- PCA grouping, sensitizing vs. non-sensitizing chemicals (MUTZ-3 cells [1]; [4]): grouped closely with the sensitizers

Compound: Oc1cccc(O)c1 [Resorcinol]
- CD86 surface expression (MUTZ-3 cells [3]): significantly up-regulated
- PCA grouping, sensitizing vs. non-sensitizing chemicals (MUTZ-3 cells [1]; [4]): grouped together with the control group
- PCA grouping, each individual stimulation (MUTZ-3 cells [1]; [7]): group together, separate from the negative group
- Potency (mice; [6]): Moderate [48]

Compound: Isoeugenol
- PCA grouping, sensitizing vs. non-sensitizing chemicals (MUTZ-3 cells [1]; [4]): grouped together with the control group

Compound: Oc1ccccc1 [Phenol]
- PCA grouping, sensitizing vs. non-sensitizing chemicals (MUTZ-3 cells [1]): grouped closely with the sensitizers

Compound: CCCCCCCCCCCCOS(=O)(=O)[O-].[Na+] [Sodium dodecyl sulphate]
- Rv90 (MUTZ-3 cells [2]): 200 µM

Compound: OC/C=C/c1ccccc1 [Cinnamic alcohol]
- solubility (physchem): 500 µM (≈ 67.1 µg/mL)
- PCA grouping, each individual stimulation (MUTZ-3 cells [1]; [7]): group together, separate from the negative group
- Potency (mice; [6]): Weak [46]

Compound: O=Cc1ccccc1 [Benzaldehyde]
- solubility (physchem): 250 µM (≈ 26.5 µg/mL)

Compound: C=O [Formaldehyde]
- Rv90 (MUTZ-3 cells [2]): 80 µM
- PCA grouping, each individual stimulation (MUTZ-3 cells [1]): group together, separate from the negative group
- Potency (mice; mouse, in vivo): Strong [15]

Compound: C=CC(=O)OCCO [2-Hydroxyethyl acrylate]
- CD86 surface expression (MUTZ-3 cells [3]): significantly up-regulated
- Rv90 (MUTZ-3 cells [2]; [5]): 100 µM
- Potency predicted by Prediction Signature gene expression profile (MUTZ-3 cells [1]): showed resemblance to strong and extreme sensitizers
- PCA grouping, each individual stimulation (MUTZ-3 cells [1]; [7]): group together, separate from the negative group

Compound: CC1(C)S[C@@H]2[C@H](NC(=O)Cc3ccccc3)C(=O)N2[C@H]1C(=O)O [Penicillin G]
- PCA grouping, sensitizing vs. non-sensitizing chemicals (MUTZ-3 cells [1]; [4]): grouped together with the control group

Compound: Nc1ccccc1O [2-Aminophenol]
- CD86 surface expression (MUTZ-3 cells [3]): significantly up-regulated
- frequency of CD86-positive cells (MUTZ-3 cells [3]; one representative experiment out of three, Figure 2A): 60.4%
- Rv90 (MUTZ-3 cells [2]; [5]): 100 µM
- PCA grouping, each individual stimulation (MUTZ-3 cells [1]): group together, separate from the negative group
- Potency (mice; mouse, in vivo): Strong [46]

Compound: Nc1ccc(N)cc1 [p-Phenylendiamine]
- CD86 surface expression (MUTZ-3 cells [3]): significantly up-regulated
- Rv90 (MUTZ-3 cells [2]): 75 µM
- PCA grouping, each individual stimulation (MUTZ-3 cells [1]; [7]): group together, separate from the negative group
- Potency (mice; [6]): Strong [47]

Compound: CCCCCCC(C=O)=Cc1ccccc1 [Hexylcinnamic aldehyde]
- solubility (physchem): 32.3 µM (≈ 7 µg/mL)
- Potency predicted by Prediction Signature gene expression profile (MUTZ-3 cells [1]): grouped together with weak sensitizers
- PCA grouping, sensitizing vs. non-sensitizing chemicals (MUTZ-3 cells [1]; [4]): grouped together with the control group
- Potency (mice; [6]): Moderate [15]

Compound: O=[N+]([O-])c1ccc(Cl)c([N+](=O)[O-])c1 [2,4-Dinitrochlorobenzene]
- CD86 surface expression (MUTZ-3 cells [3]): significantly up-regulated
- Rv90 (MUTZ-3 cells [2]; [5]): 4 µM
- PCA grouping, each individual stimulation (MUTZ-3 cells [1]; [7]): group together, separate from the negative group
- Potency (mice; mouse, in vivo): Extreme [15]

Compound: CCO/C=C1\N=C(c2ccccc2)OC1=O [Oxazolone]
- Potency (mice; mouse, in vivo): Extreme [15]

Compound: Nc1ccc(N)c([N+](=O)[O-])c1 [2-nitro-1,4-Phenylendiamine]
- CD86 surface expression (MUTZ-3 cells [3]): significantly up-regulated
- PCA grouping, each individual stimulation (MUTZ-3 cells [1]; [7]): group together, separate from the negative group

Compound: Clc1ccccc1 [Chlorobenzene]
- solubility (Max solubility in medium): 98 µM (≈ 11 µg/mL)

Compound: NCCN [Ethylendiamine]
- Potency predicted by Prediction Signature gene expression profile (MUTZ-3 cells [1]): grouped together with weak sensitizers
- PCA grouping, sensitizing vs. non-sensitizing chemicals (MUTZ-3 cells [1]; [4]): grouped together with the control group
- Potency (mice; mouse, in vivo): Moderate [14]
